Where a name gives a salt, the structure may show the parent alone. Values belong to the molecule of their own block, whether it stands above or below them.
Legend:
[1] = In vitro dissolution test, USP XXII dissolution apparatus II (paddle method), SBF pH 7.4 with 0.5% sodium dodecyl sulphate, 37° C.; format: physicochemical; settings: for Dissolution of toremifene citrate: b: silica xerogel with PEG 4,600; for Release of toremifene citrate: SLOPE: silica xerogel; for release of toremifene citrate: linear, zero-order
Procedure: Simulated body fluid (SBF, pH 7.4) containing 0.5% […] sodium dodecyl sulphate was used as dissolution medium. SBF was prepared by dissolving reagent grade NaCl (136.8 mM), NaHCO3 (4.2 mM), KCl (3.0 mM), K2HPO4×3H2O (1.0 mM), MgCl2×6H2O (1.5 mM), CaCl2×2H2O […] and Na2SO4 (0.5 mM) in distilled water. They were buffered at pH 7.4 with tris-(hydroxymethyl)aminomethane (50 mM) and hydrochloric acid.
The volume of dissolution medium was 250 ml. Agitation intensity was 50 rpm and temperature was 37° C. […]

[2] = Dissolution of spray dried or crushed gel particles in 250 ml SBF, USP XXII dissolution apparatus II (paddle method); format: physicochemical; settings: for toremifene citrate released: after 30 hours; for slope (%/h^1/2): microspheres with 11 w-% toremifene citrate
Procedure: The solution for spray drying purpose was prepared with a mole ratio of TEOS:H2O:HCl=1.0:14.2:0.003. […] Before spray drying the pH of the sol was adjusted to pH 2.1 with hydrochloric acid. Silica sol was spray dried immediately or after 65 hours aging at room temperature. The spray drying conditions were as described in Example 6. […] About 42 mg of gel particles were placed in 250 ml of simulated body fluid (SBF) at 37° C. and pH 7.4.

[3] = during the first day; crushed silica xerogel particles of 500-700 μm; cited from earlier work

release faster from 28 days aged silica xerogels than from unaged ([1]; silica xerogel monolith with PEG 4,600): about 30% | Dissolution of toremifene citrate: b ([1]; aging 0 days, dried at 11.4 RH-%): b = 0.46%/mg %/mg implant/h^1/2 | Dissolution of toremifene citrate: b ([1]; aging 0 days, dried at 48.4 RH-%): b = 0.53 %/mg implant/h^1/2 | Dissolution of toremifene citrate: b ([1]; aging 0 days, dried at 74.7 RH-%): b = 0.46 %/mg implant/h^1/2 | Dissolution of toremifene citrate: b ([1]; aging 7 days, dried at 11.4 RH-%): b = 0.59 %/mg implant/h^1/2 | Dissolution of toremifene citrate: b ([1]; aging 7 days, dried at 48.4 RH-%): b = 0.52 %/mg implant/h^1/2 | Dissolution of toremifene citrate: b ([1]; aging 7 days, dried at 74.7 RH-%): b = 0.06%/mg %/mg implant/h | Dissolution of toremifene citrate: b ([1]; aging 28 days, dried at 11.4 RH-%): b = 0.67 %/mg implant/h^1/2 | Dissolution of toremifene citrate: b ([1]; aging 28 days, dried at 48.4 RH-%): b = 0.74 %/mg implant/h^1/2 | Release of toremifene citrate: SLOPE ([1]; H2O/TEOS = 6:1, PEG 4600): 0.094%/ %/mg × h | Release of toremifene citrate: SLOPE ([1]; H2O/TEOS = 6:1, PEG 10000): 0.922%/mg %/mg IMPLANT × h^1/2 | Release of toremifene citrate: SLOPE ([1]; H2O/TEOS = 6:1, without PEG): 0.657%/mg %/mg IMPLANT × h^1/2 | Release of toremifene citrate: SLOPE ([1]; H2O/TEOS = 14:1, PEG 4600): 0.052 %/mg IMPLANT × h | Release of toremifene citrate: SLOPE ([1]; H2O/TEOS = 14:1, PEG 10000): 0.061 %/mg IMPLANT × h | Release of toremifene citrate: SLOPE ([1]; H2O/TEOS = 14:1, without PEG): 0.085 %/mg IMPLANT × h | release rate (linear) ([1]; silica xerogels containing PEG 10 000): 0.1 %/mg implant/h | release rate (linear) ([1]; silica xerogels containing PEG 4600): 0.13 %/mg implant/h | release rate (linear) ([1]; silica-xerogels without polyethylene glycol): 0.16 %/mg implant/h | release of toremifene citrate ([1]; sintered silica gel (120° C.) containing 11.5 wt-% drug): 0.05 %/mg implant/h | release of toremifene citrate ([1]; sintered silica gel (120° C.) containing 34.4 wt-% drug): 0.11 %/mg implant/h | release rate (linear) ([1]; spray dried particles (60-200 μm) containing 10.2 w-% toremifene citrate, two months from preparation): 0.68 w-% per hour | toremifene citrate released ([2]; microspheres (<50 μm) spray dried at pH 3.8, square root of time kinetics): 80 w-% | toremifene citrate released ([2]; microspheres from sol aged 65 hours, pH 2): 63.1 w-% | toremifene citrate released ([2]; microspheres from unaged sol, pH 2): 75.2 w-% | dissolution rate (square root of time kinetics) ([2]; crushed silica xerogel granules about 4-50 μm, PEG 4.600): 8.1 %/h^1/2 | cum released toremifene (%) after 30 h ([2]; microspheres aged for 0 h (pH 2)): 75.2% | cum released toremifene (%) after 30 h ([2]; microspheres aged for 65 h (pH 2)): 63.1% | slope (%/h^1/2) ([2]; aged for 0 h (pH 2)): 12.2 %/h^1/2 | slope (%/h^1/2) ([2]; aged for 65 h (pH 2)): 9.79 %/h^1/2 | release slower from aged than from unaged microspheres ([2]; sol aged 65 h vs 0 h, pH 2): about 20%
Compound: CN(C)CCOc1ccc(/C(=C(/CCCl)c2ccccc2)c2ccccc2)cc1 [toremifene citrate]

Compound: CN[C@H](CC(C)C)C(=O)N[C@H]1C(=O)N[C@@H](CC(N)=O)C(=O)N[C@H]2C(=O)N[C@H]3C(=O)N[C@H](C(=O)N[C@H](C(=O)O)c4cc(O)cc(O)c4-c4cc3ccc4O)[C@H](O)c3ccc(c(Cl)c3)Oc3cc2cc(c3O[C@@H]2O[C@H](CO)[C@@H](O)[C@H](O)[C@H]2O[C@H]2C[C@](C)(N)[C@H](O)[C@H](C)O2)Oc2ccc(cc2Cl)[C@H]1O [vancomycin]
incorporated vancomycin released [3]: about 90%
